Reference: patent publication US20220347144A1, “COMPOSITIONS AND METHODS FOR PREVENTING AND/OR REDUCING WEIGHT GAIN AND ASSOCIATED CONDITIONS” (University of Virginia Patent Foundation, priority 2019, published 2022)

Assays:
C57Bl/6J mice [1] = assay: Body composition (EchoMRI); type: in vivo, mouse
Procedure: Animals. Animal experiments were approved by the Animal Care and Use Committee of the University of Virginia (Charlottesville, Va., United States of America). C57Bl/6J mice were obtained from Jackson Laboratories (Bar Harbor, Me., United States of America). Mice were group housed in standard cages with up to five mice per cage with a 12 hour dark/light cycle. All mice were weighed once per week. Weekly food consumption was measured, with the amount consumed per cage averaged amongst the mice in the cage. Body composition was determined by use of an ECHOMRI™-100H Body Composition Analyzer (EchoMRI LLC, Houston, Tex., United States of America).
Diets. Diets were obtained from Research Diets (New Brunswick, N.J., United States of America). The low fat chow was D12450Ji (10 kcal % fat) and the high fat chow was D12492 (60 kcal % fat). These two chows were reformulated by replacing a portion of dietary fat with an ethyl ester of nervonic acid from Nu-Chek Prep (Elysian, Minn., United States of America) to produce isocaloric diets with nervonic acid at 6 g per kg of diet (0.6%). For the three most prevalent fatty acids in these diets: C16 comprised 14.4%, 11.7%, 18.5%, and 18.1%; C18:1 comprised 27.4%, 22.8%, 32%, and 31.4%; and C18:2 comprised 39.6%, 36.2%, 26.9%, and 26.5% of the fatty acid composition of the Cnt, Cnt+NA, HFD, and HFD+NA diets, respectively. Mice were started on diets at ˜8 weeks of age and given ad libitum access.

C57Bl/6J mice [2] = assay: Plasma insulin (fasting and after IP glucose); type: in vivo, mouse; conditions: for fasting (basal) plasma insulin levels: HFD+NA versus HFD; for fasting (basal) plasma insulin levels / fasting plasma insulin levels: 8 weeks; for increase in insulin after intraperitoneal administration of glucose: HFD+NA, 30 min after IP glucose; for fasting plasma insulin levels: control diet with NA
Procedure: Insulin Tolerance Test (ITT) and Glucose Tolerance Test (GTT) and analysis of blood glucose and plasma insulin. ITT and GTT were performed as described in Lansey et al., 2012. Briefly, for ITT, random-fed mice were given an intraperitoneal injection (IP) of insulin (0.75 U/kg in 0.9% NaCl). Blood glucose levels were determined by a glucometer (Contour Next EZ Blood Glucose Monitoring System, Bayer, Leverkusen, Germany) at the indicated time points after injection. For GTT, mice were fasted for 16 hours prior to testing. D-Glucose, prepared the day before, was administered via an IP injection (1 g/kg), and blood glucose levels were determined by a glucometer at the indicated time points after injection. Plasma insulin levels were determined using a STELLUX® brand Chemi Rodent Insulin ELISA kit (Cat. No. 80-INSMR-CHO1; APLCO, Salem, N.H., United States of America) or an Ultrasensitive Rat/Mouse Insulin ELISA kit, Low Range Assay (Cat. No. 90060; Crystal Chem, Downers Grove, Ill., United States of America). The luminescence assay was conducted using a VICTOR2 Plate Reader (Perkin Elmer, Waltham, Mass., United States of America).
For assessment of insulin, blood was collected with heparinized capillary tubes and subsequently centrifuged to obtain plasma. Insulin levels was then determined using a STELLUX® Chemi Rodent Insulin ELISA kit (Catalog No. 80-INSMR-CHO1, APLCO, Salem, N.H., United States of America) or an Ultrasensitive Rat/Mouse Insulin ELISA kit low range (Cat. No 90060; Crystal Chem, Downers Grove, Ill., United States of America). The luminescence assay was conducted using a VICTOR2 Plate Reader (Perkin Elmer, Waltham, Mass., United States of America).

In the case of (Z)-tetracos-15-enoic acid [NA], the “average body fat content” value (C57Bl/6J mice [1]; HFD+NA fed animals at the time of sacrifice (HFD: 16.44 g/mouse)) is reported as 9.48 g/mouse, the fat mass (C57Bl/6J mice [1]; HFD+NA versus HFD) is reported as “reduction in fat mass” and the lean mass (C57Bl/6J mice [1]; HFD+NA versus HFD) is reported as “slightly, but significantly, reduced”. For the same substance, the lean mass (C57Bl/6J mice [1]; HFD+NA versus control or control+NA groups) was “not significantly different”, the water mass (C57Bl/6J mice [1]; all experimental groups) was “similar” and the lean mass (C57Bl/6J mice [1]; control+NA versus control) was “not significantly different”. For the same substance, the “fasting (basal) plasma insulin levels” value (C57Bl/6J mice [2]) was “significantly reduced”, the “fasting (basal) plasma insulin levels” value (C57Bl/6J mice [2]; listed as nervonic acid) was “reduced insulin levels” and the “increase in insulin after intraperitoneal administration of glucose” value (C57Bl/6J mice [2]) was “no such increase”. For the same substance, the “increase in insulin after intraperitoneal administration of glucose” value (C57Bl/6J mice [2]; listed as nervonic acid) was “not observed”, the “fasting plasma insulin levels” value (C57Bl/6J mice [2]) was “did not affect insulin levels” and the “fasting plasma insulin levels” value (C57Bl/6J mice [2]; listed as nervonic acid) was “did not influence insulin levels”.
